This is an account of results in US7985764B2, “Amide derivative or salt thereof” (Astellas Pharma Inc., priority 2006, dated 2011).

Structures can show the parent of a compound that is named as a salt.

For one assay, the target named is T1, human 5-HT7 receptor (Homo sapiens, UniProt P34969).
T1 construct: expressed in transfected cells; host or cells: CHO
Description: 5-HT7 receptor binding test. As to conditions: human 5-HT7 receptor expressing CHO cell membrane; radio-ligand [3H] 5-HT. The method, then:
Test Method (2) 5-HT7 Receptor Binding Test (i) Preparation of Membrane Sample
Cultured human 5-HT7 receptor expressing CHO cells were washed with PBS(−). The cells were peeled off with a scraper in the presence of PBS(−), and the cells were recovered by centrifugation (1,000 rpm, 10 minutes, 4° C.). In the presence of 5 mM Tris-HCl (pH 7.4) buffer, homogenized using a homogenizer (registered trademark: Polytron (PTA 10-TS)), and centrifugation-treated (40,000×g, 10 minutes, 4° C.). In the presence of 50 mM Tris-HCl (pH 7.4) buffer, suspended using Glass-Teflon (registered trademark) homogenizer. By carrying out centrifugation treatment (40,000×g, 10 minutes, 4° C.), suspended in 50 mM Tris-HCl (pH 7.4) and stored at −80° C.
(§1) (ii) Receptor Binding Test
A total volume of 500 μl containing 50 mM Tris-HCl, a 4 mM CaCl2 (pH 7.4) buffer, a human 5-HT7 receptor expressing CHO cell membrane preparation and a radio-ligand [^3H] 5-HT (3.40 TBq/mmol) was incubated at 25° C. for 1 hour. The compound was dissolved in 100% DMSO and diluted to respective concentrations.
Binding quantity in the presence of 10 μM metergoline was regarded as the nonspecific binding, and a result of subtracting the nonspecific binding quantity from the total binding quantity was regarded as the specific binding quantity. After adding 4 ml of 50 mM Tris-HCl buffer (pH 7.4) and filtering under a reduced pressure using a GF/B glass filter, the filter was washed (4 ml×3) with the same buffer. By soaking the glass filter in 5 ml of a liquid scintillator (trade name: Aquasol-2), the radioactivity quantity was measured using a liquid scintillation counter.

For a further assay, the target named is T2, human 5-HT2B receptor (Homo sapiens, UniProt P41595).
T2 construct: expressed in transfected cells; host or cells: HEK293-EBNA
T2 sequence (P41595 whole entry): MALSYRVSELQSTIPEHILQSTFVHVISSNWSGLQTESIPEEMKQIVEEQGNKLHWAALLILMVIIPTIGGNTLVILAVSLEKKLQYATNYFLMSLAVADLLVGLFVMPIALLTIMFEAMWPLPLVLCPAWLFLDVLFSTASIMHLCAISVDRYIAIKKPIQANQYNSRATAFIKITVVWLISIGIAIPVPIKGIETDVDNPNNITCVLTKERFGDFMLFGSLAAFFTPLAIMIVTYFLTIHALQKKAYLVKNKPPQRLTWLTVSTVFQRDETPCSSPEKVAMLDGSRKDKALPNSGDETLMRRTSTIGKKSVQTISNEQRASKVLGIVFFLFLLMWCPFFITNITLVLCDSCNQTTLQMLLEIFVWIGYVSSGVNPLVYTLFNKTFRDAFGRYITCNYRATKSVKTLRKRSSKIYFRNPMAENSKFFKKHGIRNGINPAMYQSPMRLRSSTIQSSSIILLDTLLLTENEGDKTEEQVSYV
Description: 5-HT2B receptor binding test. Conditions: human 5-HT2B receptor expressing HEK293-EBNA cell membrane; radio-ligand [3H] Mesulergine or [3H] Serotonin. The method, then:
Effects of the compound (I) of the present invention were verified by the following pharmacological tests. • Test Method (1) 5-HT2B Receptor Binding Test • (i) Preparation of Membrane Sample
Cultured human 5-HT2B receptor expressing HEK293-EBNA cells were washed with a phosphate buffer (PBS)(−). The cells were peeled off with a scraper in the presence of PBS(−), and the cells were recovered by centrifugation (1,000 rpm, 10 minutes, 4° C.). In the presence of 5 mM tris-hydrochloric acid (Tris-HCl) (pH 7.4) buffer, homogenized using a homogenizer (registered trademark: Polytron (PTA 10-TS)), and centrifugation-treated (40,000×g, 10 minutes, 4° C.). In the presence of 50 mM Tris-HCl (pH 7.4) buffer, suspended using Glass-Teflon (registered trademark) homogenizer. By carrying out centrifugation treatment (40,000×g, 10 minutes, 4° C.), suspended in 50 mM Tris-HCl (pH 7.4) and stored at −80° C.
as §1
A total volume of 500 μl containing 50 mM Tris-HCl, a 4 mM CaCl2 (pH 7.4) buffer, a human 5-HT2B receptor expressing HEK293-EBNA cell membrane preparation and a radio-ligand [^3H] Mesulergine (3.1 TBq/mmol;) or [^3H] Serotonin (5-Hydroxytryptamine) (3.7 TBq/mmol;) was incubated at 25° C. for 1 hour. The compound was dissolved in 100% dimethyl sulfoxide (DMSO) and diluted to respective concentrations. Binding quantity in the presence of 1 μM ritanserin was regarded as the nonspecific binding, and a result of subtracting the nonspecific binding quantity from the total binding quantity was regarded as the specific binding quantity. After adding 4 ml of 50 mM Tris-HCl buffer (pH 7.4) and filtering under a reduced pressure using a GF/B glass filter, the filter was washed (4 ml×3) with the same buffer. By soaking the glass filter in 5 ml of a liquid scintillator (trade name: Aquasol-2), the radioactivity quantity was measured using a liquid scintillation counter. […] Ex represents the Example compound number which is described later.

The subject of another assay is male Wistar rats. Description: Defecation suppressing effect at the time of restraint stress loading (rat restraint stress defecation model). The format is in vivo. As to conditions: for dose from which a significant suppressing action (number of feces excreted) is shown: p.o.; for defecation-suppressing action: 10 mg/kg p.o., restraint stress loaded 30 minutes after the administration; for number of feces excreted, in comparison with the non-administration group: 1, 3 or 10 mg/kg administration group, N=10. The method, then:
Test Method (4) Defecation Suppressing Effect at the Time of Restraint Stress Loading
The IBS-treating effect of the compound (I) of the present invention was evaluated using a test method in which the amount of excreted feces is measured by loading a restraint stress on rats (see “The Journal of Pharmacology Experimental Therapeutics”, (USA), 1992, vol. 261, p. 297-303).
The agent to be tested was administered to male Wistar rats (body weight 250 to 320 g, 10 animals for each group), and a restraint stress was loaded 30 minutes to 3 hours thereafter. A restraint cage (trade name: KN-468, 265 mm in width×95 mm in length×200 mm in height, Natsume Seisakusho, Tokyo) was used for the restraint stress loading, and the number of feces excreted during 1 hour after the stress loading was counted.

Another assay relates to 5-HT2B receptor. Conditions: versus 5-HT1A, 5-HT1B, 5-HT2A, 5-HT2C, 5-HT3, 5-HT6, 5-HT7, α1, M1, D2 and the like; cited from earlier work.
Setting [1] is: restraint stress loaded 1 hour after the administration.

T1 sequence (P34969 whole entry): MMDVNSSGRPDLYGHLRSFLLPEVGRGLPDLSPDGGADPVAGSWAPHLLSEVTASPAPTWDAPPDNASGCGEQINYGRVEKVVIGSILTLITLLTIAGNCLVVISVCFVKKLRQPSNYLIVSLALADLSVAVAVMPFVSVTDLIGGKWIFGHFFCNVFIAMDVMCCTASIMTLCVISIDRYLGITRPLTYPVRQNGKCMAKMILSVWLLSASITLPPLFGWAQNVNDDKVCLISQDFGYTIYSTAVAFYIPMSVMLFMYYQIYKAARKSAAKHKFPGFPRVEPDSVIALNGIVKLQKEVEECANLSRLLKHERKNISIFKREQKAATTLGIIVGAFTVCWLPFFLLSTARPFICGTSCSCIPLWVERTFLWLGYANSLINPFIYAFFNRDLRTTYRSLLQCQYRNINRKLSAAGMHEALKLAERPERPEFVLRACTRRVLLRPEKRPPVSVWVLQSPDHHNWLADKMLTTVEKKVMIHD

With `NC(N)=NC(=O)c1ccc2c(c1)[nH]c(=O)n2Cc1ccc(F)cc1` [Example 10, N-[1-(4-fluoro-benzyl)-2-oxo-2,3-dihydro-1H-benzimidazole-5-carbonyl]-guanidine hydrochloride], the Ki was 2800 pM at human 5-HT7 receptor and 2700 pM on human 5-HT2B receptor.

As to `Cc1c(C)n(Cc2ccc(F)cc2)c2ccc(C(=O)N=C(N)N)cc12` [Example 24], the Ki at human 5-HT7 receptor was found to be 660 pM; at human 5-HT2B receptor, 240 pM.

For the compound `Cc1c(S(C)(=O)=O)c2cc(C(=O)N=C(N)N)ccc2n1Cc1ccc(F)cc1` [Example 102], the Ki was found to be 360 pM at human 5-HT7 receptor and 120 pM on human 5-HT2B receptor.

On to `CCc1c(C)n(Cc2ccc(F)cc2)c2ccc(C(=O)N=C(N)N)cc12` [Example 103, N-(diaminomethylene)-3-ethyl-1-(4-fluorobenzyl)-2-methyl-1H-indole-5-carboxamide], for which the Ki is 1300 pM on human 5-HT7 receptor and 120 pM on human 5-HT2B receptor. For the same compound, in the assay on male Wistar rats (setting [1]), the “dose from which a significant suppressing action (number of feces excreted) is shown” value was not below 1 mg/kg.

Consider `CC(=O)c1c(C)n(Cc2ccc(F)cc2)c2ccc(C(=O)N=C(N)N)cc12` [Example 104, 3-acetyl-N-(diaminomethylene)-1-(4-fluorobenzyl)-2-methyl-1H-indole-5-carboxamide], for which the figures for the inhibitory constant (Ki) on human 5-HT7 receptor and on human 5-HT2B receptor were 1300 pM and 88 pM, respectively.

On to `Cc1c(C)n(Cc2ccc(F)cc2)c2ccc(C(=O)NCCN(C)C)cc12` [Example 156], for which the inhibition constant Ki on human 5-HT7 receptor and on human 5-HT2B receptor was 3400 pM in each case.

On to `CCc1c(C)n(Cc2ccc(F)cc2)c2ccc(C(=O)NCCN(C)C)cc12` [Example 226], for which the inhibition constant (Ki) at human 5-HT7 receptor was determined as 4300 pM; on human 5-HT2B receptor it was 190 pM. The “dose from which a significant suppressing action (number of feces excreted) is shown” value in the assay on male Wistar rats (setting [1]) is listed as not below 1 mg/kg.

Take `CCc1c(C)n(Cc2ccc(F)cc2)c2ccc(C(=O)N[C@H]3CCN(C)C3)cc12` [Example 236]: the inhibitory constant (Ki) at human 5-HT7 receptor stood at 2600 pM; on human 5-HT2B receptor it was 290 pM. For the same compound, the “dose from which a significant suppressing action (number of feces excreted) is shown” value in the assay on male Wistar rats (restraint stress loaded 3 hours after the administration) was not below 0.3 mg/kg.

Consider `CCc1c(CC)n(Cc2ccc(F)cc2)c2ccc(C(=O)N[C@H]3CCN(C)C3)cc12` [Example 237], for which the inhibition constant Ki at human 5-HT7 receptor worked out at 4900 pM; at human 5-HT2B receptor, 220 pM.

As to `CCc1c(C)n(Cc2ccc(F)cc2)c2ccc(C(=O)N[C@@H]3CCN(C)C3)cc12` [Example 238], the Ki worked out at 8000 pM at human 5-HT7 receptor and 240 pM at human 5-HT2B receptor.

For `Cc1nc2cc(C(=O)N=C(N)N)ccc2n1Cc1ccc(F)cc1` [Example 244, N-(diaminomethylene)-1-(4-fluorobenzyl)-2-methyl-1H-benzimidazol-5-carboxamide], in the assay with male Wistar rats (setting [1]), the “dose from which a significant suppressing action (number of feces excreted) is shown” value is not below 3 mg/kg.

With `CC(C)c1cc(-c2ccc(F)c3ccccc23)nc(N)n1` [RS-127445, 2-amino-4-(4-fluoronaphth-1-yl)-6-isopropylpyrimidine, reference compound], in the assay on male Wistar rats, the defecation-suppressing action entry is recorded as “did not show defecation-suppressing action” and the “number of feces excreted, in comparison with the non-administration group” value is given as “Significant difference was not found”. In the assay on 5-HT2B receptor, the “5-HT2B receptor-selective by a factor” value is reported as not below 1000 times.

Turning to `CC1CCN(CC[C@H]2CCCN2S(=O)(=O)c2cccc(O)c2)CC1` [SB-269970, (R)-3-(2-(2-(4-methylpiperidin-1-yl)ethyl)pyrrolidine-1-sulfonyl)phenol, reference compound], in the assay with male Wistar rats, the defecation-suppressing action result is recorded as “did not show the defecation-suppressing action” and the “number of feces excreted, in comparison with the non-administration group” value is reported as “Significant difference was not found”.

By Ki is commonly meant a dissociation constant, usually derived from enzyme kinetics or from competition with a known ligand.
